Test results: article PMC6508583 (Journal of the American Chemical Society, 2019)
In brackets after ≈: the same amount, converted by molar mass. Read-outs that look alike come from different tables or passages of the source.

Columns and labels:
E. cloacae = assay: Antibacterial activity against reference strains: E. cloacae; type: cell-based; conditions: for MIC: Enterobacter cloacae, read-out: Antibacterial activity (MIC) E. cloacae AG290
[1] = tested on: E. coli carrying specific resistance determinants; assay: Activity against wild-type and engineered E. coli carrying specific AMEs or RMTs; type: cell-based; conditions: for MIC: Escherichia coli
MRSA = assay: Antibacterial activity against reference strains: MRSA; type: cell-based; conditions: for MIC: Staphylococcus aureus, MRSA
[2] = tested on: E coli 70S ribosome (helix 44, A1408); assay: Quantitative dimethyl sulfate footprinting of the 70S ribosome; type: binding; conditions: read-out: apparent Kd; DMS footprinting, % protection of N1 of A1408, E. coli 70S ribosome
[3] = tested on: A1555G mutant mitochondrial hybrid ribosome; type: biochemical, human; conditions: for Selectivity A1555G: A1555G over wt bacterial ribosome; for IC50 A1555G: in vitro translation inhibition, A1555G mutant mitochondrial hybrid ribosome
[4] = tested on: Cyt14 hybrid ribosome (decoding A site of the human cytoplasmic ribosome); type: biochemical; conditions: for Selectivity Cyt14: Cyt14 over wt bacterial ribosome; for IC50 Cyt 14: in vitro translation inhibition, Cyt14 hybrid ribosome
[5] = tested on: Mycobacterium tuberculosis clinical isolates; assay: microbe, parasite or virus in culture; type: cell-based; conditions: Mycobacterium tuberculosis, read-out: MIC M. tuberculosis clinical isolates
[6] = tested on: Mit13 hybrid ribosome (decoding A site of the human mitochondrial ribosome); type: biochemical; conditions: for Selectivity Mit 13: Mit13 over wt bacterial ribosome; for IC50 Mit13: in vitro translation inhibition, Mit13 hybrid ribosome
[7] = tested on: wild-type bacterial ribosome; assay: Cell-free translation assay, wild-type bacterial ribosome; type: biochemical; conditions: in vitro translation inhibition
E. coli = assay: Antibacterial activity against reference strains: E. coli; conditions: for MIC: Escherichia coli
Mycobacterium abscessus = assay: microbe, parasite or virus in culture; type: cell-based; conditions: Mycobacteroides abscessus
K. pneumoniae = assay: Antibacterial activity against reference strains: K. pneumoniae; type: cell-based; conditions: strain AG215
A. baumannii = assay: Antibacterial activity against reference strains: A. baumannii; type: cell-based; conditions: strain AG225
P. aeruginosa = assay: Antibacterial activity against reference strains: P. aeruginosa
E coli = assay: Neutropenic mouse thigh infection model; type: in vivo; conditions: dose 3 mg.kg^−1
[8] = read-out: Activity (MIC) E. coli AG006
[9] = read-out: Activity (MIC) E. coli AG007
[10] = read-out: Activity (MIC) E. coli AG008
[11] = read-out: Activity (MIC) E. coli AG009
[12] = read-out: Activity (MIC) E. coli AG036
[13] = read-out: Activity (MIC) E. coli AG103
[14] = read-out: Activity (MIC) E. coli AG105
[15] = read-out: Activity (MIC) E. coli AG166
[16] = read-out: Antibacterial activity (MIC) MRSA AG038
[17] = read-out: Antibacterial activity (MIC) E. coli AG001
[18] = read-out: Antibacterial activity (MIC) E. coli AG003

## NC[C@@H]1O[C@H](O[C@H]2[C@@H](O)[C@H](O[C@@H]3[C@@H](O)[C@H](N)C[C@H](N)[C@H]3O[C@H]3O[C@H](CO)[C@@H](O)[C@H](O)[C@H]3N)O[C@@H]2CO)[C@H](N)[C@@H](O)[C@@H]1O [Compound 1, paromomycin, reference compound]
E. cloacae
  MIC: 2 µg/mL (≈ 3.25 µM)
[1]; [8]
  MIC: 1 to 2 µg/mL (≈ 1.62 to 3.25 µM)
[1]; [9]
  MIC: 4 µg/mL (≈ 6.5 µM)
[1]; [10]
  MIC: 2 to 4 µg/mL (≈ 3.25 to 6.5 µM)
[1]; [11]
  MIC: 4 µg/mL (≈ 6.5 µM)
[1]; [12]
  MIC: 32 to 64 µg/mL (≈ 52 to 104 µM)
[1]; [13]
  MIC: 4 µg/mL (≈ 6.5 µM)
[1]; [14]
  MIC: 2 µg/mL (≈ 3.25 µM)
[1]; [15]
  MIC: > 128 µg/mL
MRSA; [16]
  MIC: 4 µg/mL (≈ 6.5 µM)
MRSA; read-out: Antibacterial activity (MIC) MRSA AG042
  MIC: > 256 µg/mL
[2]
  Kd: 590 ± 50 nM
[3]
  Selectivity A1555G: 270
  IC50 A1555G: 5.4 µg/mL (≈ 8.77 µM)
[4]
  Selectivity Cyt14: 470
  IC50 Cyt 14: 9.4 µg/mL (≈ 15.3 µM)
[5]
  MIC: 2 to 4 µg/mL (≈ 3.25 to 6.5 µM)
[6]
  Selectivity Mit 13: 2500
  IC50 Mit13: 50 µg/mL (≈ 81.2 µM)
[7]
  IC50 wt: 0.02 µg/mL (≈ 0.0325 µM)
E. coli; [17]
  MIC: 2 to 4 µg/mL (≈ 3.25 to 6.5 µM)
E. coli; [18]
  MIC: 8 to 16 µg/mL (≈ 13 to 26 µM)
Mycobacterium abscessus; read-out: MIC M. abscessus
  MIC: 64 µg/mL (≈ 104 µM)
Mycobacterium abscessus; read-out: MIC M. abscessus, AAC(2’) gene deleted
  MIC: 16 µg/mL (≈ 26 µM)

## CCOC1C(CO)OC(OC2C(N)CC(N)C(O)C2OC2OC(CO)C(OC3OC(CN)C(O)C(O)C3N)C2O)C(N)C1O (stereo not drawn) [Compound 3]
E. cloacae; strain AG290
  Antibacterial activity (MIC) E. cloacae AG290: 8 µg/mL
[1]; strain AG006, WT
  Activity (MIC) E. coli AG006: 8 to 16 µg/mL
[1]; strain AG007, AAC(3)
  Activity (MIC) E. coli AG007: 16 to 32 µg/mL
[1]; strain AG008, ANT(2’’)
  Activity (MIC) E. coli AG008: 8 µg/mL
[1]; strain AG009, AAC(6’)
  Activity (MIC) E. coli AG009: 16 µg/mL
[1]; strain AG036, ANT(4′,4′′)
  Activity (MIC) E. coli AG036: 8 to 16 µg/mL
[1]; strain AG103, armA
  Activity (MIC) E. coli AG103: ≥64 µg/mL
[1]; strain AG105, AAC(2′)
  Activity (MIC) E. coli AG105: 8 to 16 µg/mL
[1]; strain AG166, APH(3′)
  Activity (MIC) E. coli AG166: 64 µg/mL
MRSA; strain AG038
  Antibacterial activity (MIC) MRSA AG038: 8 to 16 µg/mL
MRSA; strain AG042 carries the AAC(6)’, ANT(4’,4’’) and APH(3’) genes
  Antibacterial activity (MIC) MRSA AG042: 8 to 16 µg/mL
[2]
  Kd: 1030 ± 200 nM
[3]
  Selectivity A1555G: 1188
  IC50 A1555G: 95 µg/mL (≈ 148 µM)
[4]
  Selectivity Cyt14: 1100
  IC50 Cyt 14: 88 µg/mL (≈ 137 µM)
K. pneumoniae
  Antibacterial activity (MIC) K. pneumoniae AG215: 8 µg/mL
A. baumannii
  Antibacterial activity (MIC) A. baumannii AG225: 16 to 32 µg/mL
[6]
  Selectivity Mit 13: 1075
  IC50 Mit13: 86 µg/mL (≈ 134 µM)
[7]
  IC50 wt: 0.08 µg/mL (≈ 0.124 µM)
P. aeruginosa; strain AG031 carries the APH(3’) gene
  Antibacterial activity (MIC) P. aeruginosa AG031: >64 µg/mL
P. aeruginosa; strain AG220 carries the APH(3’) gene
  Antibacterial activity (MIC) P. aeruginosa AG220: >64 µg/mL
E. coli; strain AG001
  Antibacterial activity (MIC) E. coli AG001: 16 µg/mL
E. coli; strain AG003 carries the AAC(3) gene
  Antibacterial activity (MIC) E. coli AG003: 32 µg/mL

## CN[C@@H]1[C@@H](O)[C@@H](O[C@@H]2[C@@H](O)[C@H](O[C@H]3OC(CNCCO)=CC[C@H]3N)[C@@H](N)C[C@H]2NC(=O)[C@@H](O)CCN)OC[C@]1(C)O [Plazomicin, reference compound]
E. cloacae
  MIC: 0.5 µg/mL (≈ 0.844 µM)
[1]; [8]
  MIC: 0.5 to 1 µg/mL (≈ 0.844 to 1.69 µM)
[1]; [9]
  MIC: 2 µg/mL (≈ 3.37 µM)
[1]; [10]
  MIC: 0.5 to 1 µg/mL (≈ 0.844 to 1.69 µM)
[1]; [11]
  MIC: 2 µg/mL (≈ 3.37 µM)
[1]; [12]
  MIC: 1 µg/mL (≈ 1.69 µM)
[1]; [13]
  MIC: > 128 µg/mL
[1]; [14]
  MIC: 1 to 2 µg/mL (≈ 1.69 to 3.37 µM)
[1]; [15]
  MIC: 1 µg/mL (≈ 1.69 µM)
MRSA; [16]
  MIC: 2 µg/mL (≈ 3.37 µM)
[3]
  Selectivity A1555G: 47
  IC50 A1555G: 2.8 µg/mL (≈ 4.72 µM)
E coli
  log reduction in colony-forming units (CFUs) compared to vehicle: similar
[4]
  Selectivity Cyt14: 6983
  IC50 Cyt 14: 419 µg/mL (≈ 707 µM)
[6]
  Selectivity Mit 13: 833
  IC50 Mit13: 50 µg/mL (≈ 84.4 µM)
[7]
  IC50 wt: 0.06 µg/mL (≈ 0.101 µM)
E. coli; [17]
  MIC: 2 µg/mL (≈ 3.37 µM)
E. coli; [18]
  MIC: 2 to 4 µg/mL (≈ 3.37 to 6.75 µM)
